Laboratory results as given in article PMC6423129, “Activity and structural analysis of GRL-117C: a novel small molecule CCR5 inhibitor active against R5-tropic HIV-1s” (Scientific Reports, 2019).
Marks after values point to notes of the source that are not given here.

Legend:
[1] = test system: R5-HIV-1Ba-L; assay: MAGI assay using MAGI/CCR5 cells and R5-HIV-1Ba-L; format: cell-based; settings: Ba-L (MAGI)
Method: (§1) MAGI-CCR5 cells[18] were maintained in DMEM supplemented with 10% fetal calf serum (FCS: Gemini Bio-Products, West Sacramento, CA), 200 μg/ml G418, 100 μg/ml hygromycin B, and 100 μg/ml zeomycin. The Chinese hamster ovary (CHO) cells expressing CCR5[19] were maintained in Ham’s F-12 medium (GIBCO-BRL, Rockville, MD) supplemented with 10% FCS, 50 U/ml penicillin, and 50 μg/ml streptomycin in the presence of 5 μg/ml blasticidin S hydrochloride. TZM-bl cells were obtained from the NIH AIDS Reagent Program, and were cultured in DMEM with 10% FCS. Peripheral blood mononuclear cells (PBMCs) were isolated from buffy coats of HIV-1 seronegative individuals, and were activated with 10 μg/ml phytohemagglutinin (PHA) prior to use[16]. A laboratory wild-type R5-HIV-1 strain (HIV-1Ba-L)[37] was employed for drug susceptibility assays. AD101 (experimental CCR5 inhibitor) and VVC-resistant HIV clones[7],[8] were provided by Dr. John P. Moore of Cornell University for this study. The clones were propagated with activated PBMCs, and were used for the assays. A clinical HIV-1 strain, HIV-1KP-5pc, and an MVC-resistant isolate, HIV-1KP-5mvcR, were prepared and used for antiviral assays, as previously described[10],[38]. The following reagents (plasmids) for T/F HIV-1 viruses[22],[24] were obtained through the NIH AIDS Reagent Program, Division of AIDS, NIAID, NIH: pCH040.c/2625 (cat# 11740), pCH106.c/2633 (cat# 11743), pTHRO.c/2626 (cat# 11745), and pCH058.c/2960 (cat# 11856), from Dr. John Kappes and Dr. Christina Ochsenbauer.
(§2) Antiviral assays using PHA-PBMCs (p24 assay) were conducted as previously reported[16],[38]. In brief, PHA-PBMCs (1 × 10^6/ml) were exposed to 50 TCID50 of HIV-1Ba-L or drug-resistant HIV-1 infectious clones in the presence or absence of various concentrations of drugs; 10-fold serial dilutions were performed in 96-well microculture plates. The amount of p24 antigens produced by the cells was determined on day 7 in the culture via a commercially available ELISA kit (PerkinElmer). The p24 production level in drug-free control cell cultures was used as the reference. […] Antiviral assays using MAGI-CCR5 cells (MAGI assay) were conducted as previously reported[16],[39]. Single-round virus infection assays using TZM-bl cells infected with R5-HIV-1s (HIV-1YU2, HIV-1KP-5pc, and HIV-1KP-5mvcR)[10] were also conducted as previously described.

[2] = test system: R5-HIV-1BaL; assay: p24 assay using PBMCs and R5-HIV-1BaL; format: cell-based; settings: Ba-L (PBMCs), day 7
Method: as §1, §2

[3] = test system: CC1/85 cl.6; assay: Anti-HIV-1 assay, drug-naive clinical strain CC1/85 cl.6; format: cell-based; settings: CC1/85 cl.6, drug naive R5-HIV-1 clinical strain; read-out: IC50
Method: as §1, §2

[4] = test system: CC1/85 cl.7; assay: Anti-HIV-1 assay, drug-naive clinical strain CC1/85 cl.7; format: cell-based; settings: CC1/85 cl.7, drug naive R5-HIV-1 clinical strain
Method: as §1, §2

[5] = test system: CC101.19 cl.7 (AD101 resistant); assay: microbe, parasite or virus in culture; format: cell-based, HIV-1
Method: as §1, §2

[6] = test system: D1/85.16 cl.23 (VVC resistant); assay: microbe, parasite or virus in culture; format: cell-based, HIV-1
Method: as §1, §2

[7] = test system: pCH040.c/2625; assay: MAGI assay, T/F HIV-1 clone pCH040.c/2625; format: cell-based; settings: T/F clone pCH040.c/2625, MAGI assay, mean ± SD; read-out: IC50
Description: (§3) We also examined the activity of GRL-compounds against Transmitter/founder (T/F) HIV-1 viruses. T/F viruses are involved in the initial infection. It is considered that T/F viruses virtually always use CCR5 rather than CXCR4 and infect T cells but not macrophages because […] of CD4 is needed to mediate virus entry for the initial transmission[20]–[24]. […] We obtained four HIV-1 T/F infectious clones. We determined the antiviral activity of GRL-117C, GRL-10007C and GRL-10018C on these HIV-1 clones using MAGI assay.
as §1, with “A clinical HIV-1 strain, HIV-1KP-5pc, and an MVC-resistant isolate, HIV-1KP-5mvcR, were prepared and used for antiviral assays, as previously described[10],[38].” left out
as §2

[8] = test system: pCH0.6.c/2633; assay: MAGI assay, T/F HIV-1 clone pCH0.6.c/2633; format: cell-based; settings: T/F clone pCH0.6.c/2633, MAGI assay, mean ± SD; read-out: IC50
Description: as §3
as §1, with “A clinical HIV-1 strain, HIV-1KP-5pc, and an MVC-resistant isolate, HIV-1KP-5mvcR, were prepared and used for antiviral assays, as previously described[10],[38].” left out
as §2

[9] = test system: pTHRO.c/2626; assay: MAGI assay, T/F HIV-1 clone pTHRO.c/2626; format: cell-based; settings: T/F clone pTHRO.c/2626, MAGI assay, mean ± SD; read-out: IC50
Description: as §3
as §1, with “A clinical HIV-1 strain, HIV-1KP-5pc, and an MVC-resistant isolate, HIV-1KP-5mvcR, were prepared and used for antiviral assays, as previously described[10],[38].” left out
as §2

[10] = test system: pCH058.c/2960; assay: MAGI assay, T/F HIV-1 clone pCH058.c/2960; format: cell-based; settings: T/F clone pCH058.c/2960, MAGI assay, mean ± SD; read-out: IC50
Description: as §3
as §1, with “A clinical HIV-1 strain, HIV-1KP-5pc, and an MVC-resistant isolate, HIV-1KP-5mvcR, were prepared and used for antiviral assays, as previously described[10],[38].” left out
as §2

[11] = test system: Transmitter/founder (T/F) HIV-1 viruses; assay: MAGI assay, all four T/F viruses (range); format: cell-based; settings: four T/F HIV-1 clones, MAGI assay; read-out: IC50 values (range over four T/F viruses)
Description: as §3
MAGI-CCR5 cells[18] were maintained in DMEM supplemented with 10% fetal calf serum (FCS: Gemini Bio-Products, West Sacramento, CA), 200 μg/ml G418, 100 μg/ml hygromycin B, and 100 μg/ml zeomycin. The Chinese hamster ovary (CHO) cells expressing CCR5[19] were maintained in Ham’s F-12 medium (GIBCO-BRL, Rockville, MD) supplemented with 10% FCS, 50 U/ml penicillin, and 50 μg/ml streptomycin in the presence of 5 μg/ml blasticidin S hydrochloride. TZM-bl cells were obtained from the NIH AIDS Reagent Program, and were cultured in DMEM with 10% FCS. […]
Antiviral assays using PHA-PBMCs (p24 assay) were conducted as previously reported[16],[38]. […] The amount of p24 antigens produced by the cells was determined on day 7 in the culture via a commercially available ELISA kit (PerkinElmer). […]

[12] = test system: HIV-1YU2; assay: TZM-bl single-round infection assay, HIV-1YU2; format: cell-based; settings: YU2, drug-sensitive, mean ± SD
Method: as §1, §2

[13] = test system: HIV-1KP-5pc; assay: TZM-bl single-round infection assay, HIV-1KP-5pc; format: cell-based; settings: KP-5pc, drug-sensitive clinical strain, TZM-bl assay, mean ± SD
Method: as §1, §2

[14] = test system: HIV-1KP-5mvcR; assay: TZM-bl single-round infection assay, MVC-resistant HIV-1KP-5mvcR; format: cell-based; settings: KP-5mvcR, MVC-resistant, TZM-bl assay, mean ± SD
Method: as §1, §2

## Maraviroc [MVC]
[1]
  IC50: 0.7 nM
  IC90: 6.4 nM
[2]
  IC50: 4.5 nM
  IC90: 21.6 nM
[3]
  IC50: 1.7 nM
[4]; read-out: IC50
  IC50: 2.5 nM
[4]; read-out: IC90
  IC90: 20.6 nM
[5]; CC101.19 cl.7 (AD101 resistant) vs CC1/85 cl.7
  fold increases of IC50s compared to wild type (CC1/85 cl.7): (×15)^e fold
[5]; CC101.19 cl.7 (AD101 resistant), read-out: IC50
  IC50: 36.9 nM
[5]; CC101.19 cl.7 (AD101 resistant), read-out: IC90
  IC90: 486 nM
[6]; D1/85.16 cl.23 (VVC resistant) vs CC1/85 cl.7
  fold increases of IC50s compared to wild type (CC1/85 cl.7): (×11)^e fold
[6]; D1/85.16 cl.23 (VVC resistant), read-out: IC50
  IC50: 26.5 nM
[6]; D1/85.16 cl.23 (VVC resistant), read-out: IC90
  IC90: 376 nM
[7]
  IC50: 1.7 ± 0.1 nM
[8]
  IC50: 2.3 ± 0.3 nM
[9]
  IC50: 2.2 ± 0.8 nM
[10]
  IC50: 1.9 ± 0.1 nM
[11]
  IC50: 1.7 to 2.3 nM
[12]
  IC50: 3.5 ± 2.5 nM
  IC90: 15 nM
[13]; read-out: IC50
  IC50: 8.5 ± 3.6 nM
[13]; read-out: IC90 (converted)
  IC90: 81 nM
[14]; read-out: IC50
  IC50: 36 ± 28 nM
[14]; read-out: IC90 (converted)
  IC90: 236 nM
